Assay results as given in patent US20100311714A1, “1H-IMIDAZO[4,5-c]QUINOLINONE COMPOUNDS” (priority 2009, published 2010).
Where two headings read alike, the source gives them in different places.

Legend:
PI3K alfa = molecular target: T1, PI3K alfa (Homo sapiens, UniProt P42336); assay: PI3K alpha kinase assay (Kinase-Glo luminescence); assay type: biochemical
T1 construct: His tag (C); made in house; host or cells: baculovirus BV1075; Tn5 (Trichoplusia ni) or TiniPro insect cells
How it was run: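 Kinase-Glo luminescence read of ATP remaining after PI3Kα (10 nM) phosphorylates 10 μg/mL bovine liver phosphatidylinositol with 1 μM ATP, pH 7.5 TRIS, 3 mM MgCl2, 0.05% CHAPS; 60 min at room temperature. IC50 from 4-parameter logistic fit over 8 concentrations.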

PI3K beta = molecular target: T2, PI3K beta (Homo sapiens, UniProt P42338); assay: PI3K beta kinase assay (Kinase-Glo luminescence); assay type: biochemical
T2 construct: for the full-length p110-b subunit are generated and fused by overlapping PCR; His tag (C); made in house; host or cells: baculovirus BV949; Tn5 (Trichoplusia ni) or TiniPro insect cells
T2 sequence (P42338 with tags, fused parts or gaps limits assumed): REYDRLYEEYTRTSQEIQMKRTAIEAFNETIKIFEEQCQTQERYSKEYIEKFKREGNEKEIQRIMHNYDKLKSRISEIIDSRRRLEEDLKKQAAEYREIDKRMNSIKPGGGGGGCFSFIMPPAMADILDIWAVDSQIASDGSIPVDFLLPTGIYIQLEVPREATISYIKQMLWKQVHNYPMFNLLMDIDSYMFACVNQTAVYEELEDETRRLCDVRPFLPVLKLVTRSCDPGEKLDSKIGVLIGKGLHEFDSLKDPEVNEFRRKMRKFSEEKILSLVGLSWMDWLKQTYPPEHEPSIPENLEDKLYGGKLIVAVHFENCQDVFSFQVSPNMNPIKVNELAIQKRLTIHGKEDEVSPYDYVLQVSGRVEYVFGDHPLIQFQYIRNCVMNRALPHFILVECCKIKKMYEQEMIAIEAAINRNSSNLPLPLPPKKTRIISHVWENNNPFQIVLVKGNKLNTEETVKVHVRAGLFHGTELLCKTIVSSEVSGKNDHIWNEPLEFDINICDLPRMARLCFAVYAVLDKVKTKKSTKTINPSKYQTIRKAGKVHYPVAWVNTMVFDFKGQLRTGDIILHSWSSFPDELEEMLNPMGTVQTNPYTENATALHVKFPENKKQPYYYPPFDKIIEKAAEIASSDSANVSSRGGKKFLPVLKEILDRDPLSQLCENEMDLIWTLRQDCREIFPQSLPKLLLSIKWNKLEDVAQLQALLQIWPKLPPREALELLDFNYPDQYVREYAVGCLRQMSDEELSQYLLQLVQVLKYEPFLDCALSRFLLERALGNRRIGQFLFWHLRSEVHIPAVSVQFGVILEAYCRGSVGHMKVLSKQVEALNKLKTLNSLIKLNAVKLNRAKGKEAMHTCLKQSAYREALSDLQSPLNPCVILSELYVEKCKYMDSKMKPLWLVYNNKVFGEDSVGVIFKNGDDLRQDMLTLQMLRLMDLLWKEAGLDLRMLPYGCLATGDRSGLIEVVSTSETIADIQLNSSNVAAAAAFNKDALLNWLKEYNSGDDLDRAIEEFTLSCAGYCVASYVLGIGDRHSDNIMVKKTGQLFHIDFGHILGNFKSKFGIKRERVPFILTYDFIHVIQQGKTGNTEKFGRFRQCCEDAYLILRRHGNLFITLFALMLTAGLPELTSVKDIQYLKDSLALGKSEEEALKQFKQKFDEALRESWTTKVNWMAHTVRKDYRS
How it was run: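 PI3Kβ construct BV949 (p85 iSH2–p110β full-length, C-His), 25 nM, reacted with 1 μM ATP and 10 μg/mL phosphatidylinositol in Tris pH 7.5, MgCl2, NaCl, CHAPS, DTT buffer, 60 min at room temperature. Remaining ATP by Kinase-Glo luminescence; IC50 from 4-parameter logistic fit of 8 concentrations.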

mTOR = molecular target: T3, mTOR (Homo sapiens, UniProt P42345); assay: Biochemical assay for m-TOR by TR-FRET
T3 construct: purchased Invitrogen Corporation (Carlsbad/Calif., USA) PV4753
T3 sequence (P42345 1360-2549 limits assumed): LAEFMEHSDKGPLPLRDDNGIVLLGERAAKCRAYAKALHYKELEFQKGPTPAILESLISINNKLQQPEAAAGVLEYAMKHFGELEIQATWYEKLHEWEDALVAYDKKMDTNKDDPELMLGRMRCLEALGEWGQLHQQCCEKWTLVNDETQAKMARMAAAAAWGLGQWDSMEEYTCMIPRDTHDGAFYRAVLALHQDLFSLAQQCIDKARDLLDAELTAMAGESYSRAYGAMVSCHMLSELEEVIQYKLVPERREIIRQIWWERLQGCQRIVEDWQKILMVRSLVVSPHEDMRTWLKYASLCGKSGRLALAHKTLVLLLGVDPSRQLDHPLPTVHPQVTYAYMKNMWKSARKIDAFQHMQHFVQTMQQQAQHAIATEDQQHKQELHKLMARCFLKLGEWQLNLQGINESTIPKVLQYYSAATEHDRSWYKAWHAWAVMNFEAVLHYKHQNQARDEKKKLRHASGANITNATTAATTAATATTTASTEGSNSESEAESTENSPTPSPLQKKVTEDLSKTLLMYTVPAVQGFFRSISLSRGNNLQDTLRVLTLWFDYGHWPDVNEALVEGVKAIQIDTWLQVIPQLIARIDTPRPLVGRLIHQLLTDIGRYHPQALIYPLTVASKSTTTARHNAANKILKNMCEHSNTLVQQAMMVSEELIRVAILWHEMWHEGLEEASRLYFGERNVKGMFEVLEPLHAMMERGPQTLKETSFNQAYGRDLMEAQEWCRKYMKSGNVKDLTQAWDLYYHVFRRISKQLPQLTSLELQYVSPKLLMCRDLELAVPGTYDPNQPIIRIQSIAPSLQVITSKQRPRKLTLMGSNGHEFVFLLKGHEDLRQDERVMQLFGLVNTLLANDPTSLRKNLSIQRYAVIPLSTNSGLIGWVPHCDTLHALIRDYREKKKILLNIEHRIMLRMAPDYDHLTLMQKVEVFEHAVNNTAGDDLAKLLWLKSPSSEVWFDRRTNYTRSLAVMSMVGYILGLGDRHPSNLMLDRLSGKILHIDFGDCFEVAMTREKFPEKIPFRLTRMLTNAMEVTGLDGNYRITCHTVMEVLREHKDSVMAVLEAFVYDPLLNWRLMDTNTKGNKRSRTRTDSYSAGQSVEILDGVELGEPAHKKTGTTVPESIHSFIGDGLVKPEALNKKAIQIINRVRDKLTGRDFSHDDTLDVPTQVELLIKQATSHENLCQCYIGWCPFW
How it was run: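 mTOR (0.5 nM) phosphorylates GFP-4EBP1 (400 nM) with 8 μM ATP at rt in 50 mM HEPES pH 7.5, 10 mM MnCl2, 50 mM NaCl, 1 mM EGTA, 1 mM DTT; compounds 0.003–10 μM final. EDTA stop with Tb-anti-p4EBP1[pT46] antibody (0.5 nM); TR-FRET read after 15 min against no-enzyme and vehicle controls.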

T1 sequence (P42336 with tags, fused parts or gaps limits assumed): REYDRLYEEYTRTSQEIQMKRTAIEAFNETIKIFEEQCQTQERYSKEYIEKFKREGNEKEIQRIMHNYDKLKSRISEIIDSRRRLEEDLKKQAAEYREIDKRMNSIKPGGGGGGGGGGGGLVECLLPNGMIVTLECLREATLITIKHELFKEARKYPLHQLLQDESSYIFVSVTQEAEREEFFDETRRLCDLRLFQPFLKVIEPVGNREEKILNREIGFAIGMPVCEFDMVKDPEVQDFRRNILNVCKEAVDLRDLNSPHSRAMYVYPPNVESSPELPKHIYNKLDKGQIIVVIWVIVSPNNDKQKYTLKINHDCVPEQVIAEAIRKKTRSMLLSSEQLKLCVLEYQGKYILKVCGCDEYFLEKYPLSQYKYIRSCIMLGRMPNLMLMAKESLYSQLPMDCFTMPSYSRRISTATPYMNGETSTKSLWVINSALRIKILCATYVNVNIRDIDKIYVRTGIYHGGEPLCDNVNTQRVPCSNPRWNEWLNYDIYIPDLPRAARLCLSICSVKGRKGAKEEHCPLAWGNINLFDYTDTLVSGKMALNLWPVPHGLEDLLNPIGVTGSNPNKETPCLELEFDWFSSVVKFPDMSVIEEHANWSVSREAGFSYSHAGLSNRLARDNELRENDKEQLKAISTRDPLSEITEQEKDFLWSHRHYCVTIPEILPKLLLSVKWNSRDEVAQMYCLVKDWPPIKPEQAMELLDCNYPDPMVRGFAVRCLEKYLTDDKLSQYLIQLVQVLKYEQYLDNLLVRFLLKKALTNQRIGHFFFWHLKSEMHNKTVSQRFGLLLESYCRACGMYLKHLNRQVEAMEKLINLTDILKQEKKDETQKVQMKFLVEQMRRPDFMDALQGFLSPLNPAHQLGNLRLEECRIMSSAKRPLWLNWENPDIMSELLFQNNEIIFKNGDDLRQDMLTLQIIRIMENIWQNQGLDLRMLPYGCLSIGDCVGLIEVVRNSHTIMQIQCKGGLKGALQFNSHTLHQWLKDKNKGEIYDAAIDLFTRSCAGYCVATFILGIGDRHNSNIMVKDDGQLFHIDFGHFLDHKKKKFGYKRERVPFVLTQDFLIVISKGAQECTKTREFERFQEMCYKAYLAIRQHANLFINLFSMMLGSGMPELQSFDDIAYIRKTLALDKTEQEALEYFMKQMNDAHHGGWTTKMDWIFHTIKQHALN

| Compound | IC50 (PI3K alfa; read-out: PI3Kalfa/IC50) [nM] | IC50 (PI3K beta; read-out: PI3Kbeta/IC50) [nM] | IC50 (mTOR; read-out: mTOR/IC50) [nM] | IC50 (PI3K alfa; read-out: EPK_PI3Kalfa/IC50) [nM] | IC50 (PI3K beta; read-out: EPK_PI3Kbeta/IC50) [nM] | IC50 (mTOR; read-out: EPK_mTOR/IC50) [nM] |
| --- | --- | --- | --- | --- | --- | --- |
| CNC(=O)c1ccc(-c2ccc3ncc4c(c3c2)n(-c2cccnc2C)c(=O)n4C)cc1 [Example 2.4, N-Methyl-4-[3-methyl-1-(2-methyl-pyridin-3-yl)-2-oxo-2,3-dihydro-1H-imidazo[4,5-c]quinolin-8-yl]-benzamide] | 29 | 682 | 12 |  |  |  |
| CCNc1cc(-c2ccc3ncc4c(c3c2)n(-c2ccc(N3CCCC3)nc2C)c(=O)n4C)cnc1CO [Example 25.5, 8-(5-Ethylamino-6-hydroxymethyl-pyridin-3-yl)-3-methyl-1-(2-methyl-6-pyrrolidin-1-yl-pyridin-3-yl)-1,3-dihydro-imidazo[4,5-c]quinolin-2-one] |  |  |  | 28 | 12 | 22 |
| Cn1c(=O)n(-c2cccnc2F)c2c3cc(-c4cnc5[nH]ccc5c4)ccc3ncc21 [Example 6.3, 1-(2-Fluoro-pyridin-3-yl)-3-methyl-8-(1H-pyrrolo[2,3-b]pyridin-5-yl)-1,3-dihydro-imidazo[4,5-c]quinolin-2-one] | 41 | 112 | 47 |  |  |  |
| Cc1nc(F)ccc1-n1c(=O)n(C)c2cnc3ccc(-c4cncc(N5CCC5)c4)cc3c21 [Example 7.6, 8-(5-Azetidin-1-yl-pyridin-3-yl)-1-(6-fluoro-2-methyl-pyridin-3-yl)-3-methyl-1,3-dihydro-imidazo[4,5-c]quinolin-2-one] |  |  |  | 68 | 965 | 59 |
| COc1ccc(-n2c(=O)n(C)c3cnc4ccc(-c5cncc(N6CCC6)c5)cc4c32)c(OC)n1 [Example 8.11, 8-(5-Azetidin-1-yl-pyridin-3-yl)-1-(2,6-dimethoxy-pyridin-3-yl)-3-methyl-1,3-dihydro-imidazo[4,5-c]quinolin-2-one] |  |  |  | 365 | 730 | 5 |
| Cc1ncccc1-n1c(=O)n(C)c2cnc3ccc(-c4cnc5[nH]ccc5c4)cc3c21 [Example 2.8, 3-Methyl-1-(2-methyl-pyridin-3-yl)-8-(1H-pyrrolo[2,3-b]pyridin-5-yl)-1,3-dihydro-imidazo[4,5-c]quinolin-2-one] | 26 | 173 |  |  |  |  |
| COCc1ncc(-c2ccc3ncc4c(c3c2)n(-c2cccnc2C)c(=O)n4C)cc1OC [Example 2.30, 8-(5-Methoxy-6-methoxymethyl-pyridin-3-yl)-3-methyl-1-(2-methyl-pyridin-3-yl)-1,3-dihydro-imidazo[4,5-c]quinolin-2-one] |  |  |  | 75 | 395 | 77 |
| COc1cc(-c2ccc3ncc4c(c3c2)n(-c2ccc(N3CC(F)(F)C3)nc2C)c(=O)n4C)cnc1CO [Example 24.4, 1-[6-(3,3-Difluoro-azetidin-1-yl)-2-methyl-pyridin-3-yl]-8-(6-hydroxymethyl-5-methoxy-pyridin-3-yl)-3-methyl-1,3-dihydro-imidazo[4,5-c]quinolin-2-one] |  |  |  | 56 | 2270 | 449 |
| CCNc1cc(-c2ccc3ncc4c(c3c2)n(-c2ccc(N(C)CCO)nc2C)c(=O)n4C)cnc1CO [Example 26.3, 8-(5-Ethylamino-6-hydroxymethyl-pyridin-3-yl)-1-{6-[(2-hydroxy-ethyl)-methyl-amino]-2-methyl-pyridin-3-yl}-3-methyl-1,3-dihydro-imidazo[4,5-c]quinolin-2-one] |  |  |  | 84 | 2010 | 9 |
| COc1ccc(-n2c(=O)n(C)c3cnc4ccc(-c5cnc(CO)c(OC)c5)cc4c32)c(OC)n1 [Example 8.14, 1-(2,6-Dimethoxy-pyridin-3-yl)-8-(6-hydroxymethyl-5-methoxy-pyridin-3-yl)-3-methyl-1,3-dihydro-imidazo[4,5-c]quinolin-2-one] |  |  |  | 59 | 1550 | 115 |
| COc1ccc(-n2c(=O)n(C)c3cnc4ccc(-c5cnc(C(OC)OC)c(OC)c5)cc4c32)c(OC)n1 [Example 8.13, 8-(6-Dimethoxymethyl-5-methoxy-pyridin-3-yl)-1-(2,6-dimethoxy-pyridin-3-yl)-3-methyl-1,3-dihydro-imidazo[4,5-c]quinolin-2-one] |  |  |  | 247 | 265 | 86 |
| COc1cc(-c2ccc3ncc4c(c3c2)n(-c2ccc(F)nc2C)c(=O)n4C)cnc1CO [Example 7.10, 1-(6-Fluoro-2-methyl-pyridin-3-yl)-8-(6-hydroxymethyl-5-methoxy-pyridin-3-yl)-3-methyl-1,3-dihydro-imidazo[4,5-c]quinolin-2-one] |  |  |  | 24 | 20 | 301 |

Results, then the compound that gave them:

| IC50 (PI3K alfa; read-out: PI3Kalfa/IC50) [nM] | IC50 (PI3K beta; read-out: PI3Kbeta/IC50) [nM] | IC50 (mTOR; read-out: mTOR/IC50) [nM] | IC50 (PI3K alfa; read-out: EPK_PI3Kalfa/IC50) [nM] | IC50 (PI3K beta; read-out: EPK_PI3Kbeta/IC50) [nM] | IC50 (mTOR; read-out: EPK_mTOR/IC50) [nM] | Compound |
| --- | --- | --- | --- | --- | --- | --- |
|  |  |  | 54 | 426 | 118 | COc1cc(-c2ccc3ncc4c(c3c2)n(-c2ccc(N)nc2C)c(=O)n4C)cnc1CO [Example 30.1, 1-(6-Amino-2-methyl-pyridin-3-yl)-8-(6-hydroxymethyl-5-methoxy-pyridin-3-yl)-3-methyl-1,3-dihydro-imidazo[4,5-c]quinolin-2-one] |
|  |  |  | 5 | 36 | 7 | Cc1nc(N2CCC(O)C2)ccc1-n1c(=O)n(C)c2cnc3ccc(-c4cnc(N)c(C(F)(F)F)c4)cc3c21 (centres unmarked) [Example 27.3, 8-(6-Amino-5-trifluoromethyl-pyridin-3-yl)-1-[6-(3-hydroxy-pyrrolidin-1-yl)-2-methyl-pyridin-3-yl]-3-methyl-1,3-dihydro-imidazo[4,5-c]quinolin-2-one] |
|  |  |  | 26 | 198 | 50 | COc1cc(-c2ccc3ncc4c(c3c2)n(-c2ccc(N3CC[C@H](O)C3)nc2C)c(=O)n4C)cnc1CO [Example 32.7, 8-(6-Hydroxymethyl-5-methoxy-pyridin-3-yl)-1-[6-((S)-3-hydroxy-pyrrolidin-1-yl)-2-methyl-pyridin-3-yl]-3-methyl-1,3-dihydro-imidazo[4,5-c]quinolin-2-one] |
|  |  |  | 23 | 175 | 172 | COc1cc(-c2ccc3ncc4c(c3c2)n(-c2ccc(N3CCC(OC)C3)nc2C)c(=O)n4C)cnc1CO (centres unmarked) [Example 28.3, 8-(6-Hydroxymethyl-5-methoxy-pyridin-3-yl)-1-[6-(3-methoxy-pyrrolidin-1-yl)-2-methyl-pyridin-3-yl]-3-methyl-1,3-dihydro-imidazo[4,5-c]quinolin-2-one] |
|  |  |  | 97 | 1100 | 28 | CNc1ncc(-c2ccc3ncc4c(c3c2)n(-c2ccc(N3CC[C@@H](O)C3)nc2C)c(=O)n4C)cn1 [Example 34.1, 1-[6-((R)-3-Hydroxy-pyrrolidin-1-yl)-2-methyl-pyridin-3-yl]-3-methyl-8-(2-methylamino-pyrimidin-5-yl)-1,3-dihydro-imidazo[4,5-c]quinolin-2-one] |
|  |  |  | 39 | 904 | 23 | CCOc1ccc(-c2ccc3ncc4c(c3c2)n(-c2ccc(N3CCC(O)C3)nc2C)c(=O)n4C)cn1 (centres unmarked) [Example 27.4, 8-(6-Ethoxy-pyridin-3-yl)-1-[6-(3-hydroxy-pyrrolidin-1-yl)-2-methyl-pyridin-3-yl]-3-methyl-1,3-dihydro-imidazo[4,5-c]quinolin-2-one] |
|  |  |  | 19 | 60 | 5 | Cc1nc(N2CC(O)C2)ccc1-n1c(=O)n(C)c2cnc3ccc(-c4cncc(C(C)(C)O)c4)cc3c21 [Example 29.1, 1-[6-(3-Hydroxy-azetidin-1-yl)-2-methyl-pyridin-3-yl]-8-[5-(1-hydroxy-1-methyl-ethyl)-pyridin-3-yl]-3-methyl-1,3-dihydro-imidazo[4,5-c]quinolin-2-one] |
|  |  |  | 18 | 106 | 7 | CNc1ncc(-c2ccc3ncc4c(c3c2)n(-c2ccc(N3CC[C@H](O)C3)nc2C)c(=O)n4C)cc1Cl [Example 32.4, 8-(5-Chloro-6-methylamino-pyridin-3-yl)-1-[6-((S)-3-hydroxy-pyrrolidin-1-yl)-2-methyl-pyridin-3-yl]-3-methyl-1,3-dihydro-imidazo[4,5-c]quinolin-2-one] |
|  |  |  | 34 | 299 | 8 | CNc1ncc(-c2ccc3ncc4c(c3c2)n(-c2ccc(N3CCC(OC)C3)nc2C)c(=O)n4C)cn1 (centres unmarked) [Example 28.2, 1-[6-(3-Methoxy-pyrrolidin-1-yl)-2-methyl-pyridin-3-yl]-3-methyl-8-(2-methylamino-pyrimidin-5-yl)-1,3-dihydro-imidazo[4,5-c]quinolin-2-one] |
|  |  |  | 10 | 17 | 15 | Cc1nc(N2CCC(O)C2)ccc1-n1c(=O)n(C)c2cnc3ccc(-c4cncc(C(C)(C)O)c4)cc3c21 (centres unmarked) [Example 27.5, 8-[5-(1-Hydroxy-1-methyl-ethyl)-pyridin-3-yl]-1-[6-(3-hydroxy-pyrrolidin-1-yl)-2-methyl-pyridin-3-yl]-3-methyl-1,3-dihydro-imidazo[4,5-c]quinolin-2-one] |
